Measured values published in patent US20150377889A1, “GALECTIN-3 AS A MARKER FOR PROSTATE CANCER” (Wayne State University, priority 2013, published 2015).

Experiments:
[1] = test system: co-cultured BAMEC and LNCaP cells; experiment: Three-dimensional growth and tube formation assay, BAMEC/LNCaP co-culture on […]; format: cell-based, bovine, human; settings: for tube formation: loops / tube formation: units of tubes: 10 μg/ml protein added to medium, 36 hr; for tube formation: loops: control 0; for tube formation: units of tubes: control 73; for branching morphogenesis of endothelial cells: 10 μg/ml protein, BAMEC/LNCaP co-culture
Description: Three-dimensional Growth and Tube Formation Assay. To analyze in vitro angiogenesis and interactions between epithelial and endothelial cell formation of tubular networks by co-cultured BAMEC and LNCaP cells, a three-dimensional growth and tube formation assay was performed. Briefly, […]® (10 μl) was added to each chamber of the slide (μ-Slide, ibidi, Martinsried, Germany) and gelled by a 30-min incubation at room temperature, after which 15,000 BAMEC and 5000 LNCaP cells were plated onto the gel in 50 μl of Eagle's minimal essential complete medium. In some chambers, full-length galectin-3 or its fragments were added. After 36 hr, three-dimensional structures were observed under phase contrast microscope and photographed. Images were acquired with an Olympus IX71 microscope supporting a Hamamatsu ORCA-ER video camera. Tube formation image analysis was done using the web-based Image Analysis Win-Tube module of Wimasis online software.
Three-dimensional heterotypic co-cultures of epithelial (LNCaP) and endothelial (BAMEC) cells were performed on […]® to study tube formation in the presence of 10 μg/ml galectin-3 and its fragments. […] FIG. 2B presents a quantitative evaluation of the tube formation assay.

[2] = test system: LNCaP, Du145, and PC3M cell lines; experiment: Wound-healing (scratch) assay; format: cell-based, human; settings: 24 hr, compared with the control
Description: Wound-healing Assay. A wound-healing assay, the scratch assay, was performed according to the protocol published in Liang, et al. (2007), Nat. Protoc. 2, 329-333. Briefly, in this scratch assay 60-mm dishes were coated with ECM and incubated overnight, unbound ECM was removed and the dishes were blocked with bovine serum albumin. Subconfluent growing cells were resuspended in a tissue culture dish by washing cells with PBS, adding versene containing trypsin, and mixing cells with medium containing serum. Cells were then plated onto the prepared 60-mm dish to create a confluent monolayer, and incubated for 6 hr at 37° C.
The cell lines LNCaP (null galectin-3), DU145 (stable clone with reduced galectin-3 expression), and PC3M were used to examine the effect of full-length galectin-3, galectin-3 1-107, and galectin-3 108-250 on prostate cancer cell motility using the scratch assay. The assay was performed with LNCaP, Du145, and PC3M cultured cell lines stimulated by full-length galectin-3, and fragments galectin-3 1-107 and 108-250. A uniform wound was made in each plate using a 1-μl pipette tip. The wound area was observed immediately, then at 24 hr after creation the cells were counted. Cells were grown under identical conditions.

LNCaP cells = experiment: Chemotaxis assay (Boyden chamber); format: cell-based, human; settings: 10 μg/ml, 5 hr, compared with control or either of the two fragments
Description: Chemotaxis. This assay was performed using a Boyden chamber (Neuroprobe). In the lower chamber, the chemo-attractant […]® (BD Biosciences) alone or mixed with various concentrations of recombinant galectin-3, galectin-3 1-107, or galectin-3 108-250 was added. LNCaP (5×10^4) cells suspended in basic DMEM were loaded in the upper chamber. The two chambers were separated by a polycarbonate filter of 5-micron pore size and incubated in a 37° C. tissue culture incubator for 5 hr, after which the filter was removed, the cells on top of the filter were wiped off, and the migrated cells were fixed, stained using Protocol Hema 3 stain set (Fisher Scientific), and counted under microscope. Each assay was carried out in triplicate.
The effects of galectin-3 1-107 and 108-250 fragments, as well as full-length galectin-3 on migration of LNCaP cells in a chemotaxis assay were also tested.

Row | Substance | tube formation: loops [1] | tube formation: units of tubes [1] | branching morphogenesis of endothelial cells [1] | prostate cancer cell motility [2] | migration of LNCaP cells toward MATRIGEL (LNCaP cells)
1 | galectin-3 108-250: recombinant fragment 108-250 of human galectin-3 (SEQ ID NO:3), contains carbohydrate recognition domain | 0 | 76 units | failed to do so | did not show a significant increase in motility | 
2 | full-length galectin-3: recombinant full-length human galectin-3 protein (SEQ ID NO:1), overexpressed in Escherichia coli | 12 | 127 units | induced branching morphogenesis | promotes prostate cancer cell motility | significantly higher
